# Results from PMC12388506, “Preclinical Evaluation of 2-Aminobenzothiazole Derivatives: In Silico, In Vitro, and Preliminary In Vivo Studies as Diabetic Treatments and Their Complications” (Molecules, 2025).
# Legend:
# FRAP assay = test: FRAP assay
# Experimental: (§1) All synthesized compounds were evaluated at 30 μM, 50 μM, 70 μM, 90 μM, and 110 μM under two of the most widely used methods in research to directly measure the antioxidant and anti-radical intrinsic capacity, FRAP, and ABTS assay, which were validated by a dose–response curve of 5-ASA as a reference. In the same way, these tests were carried out in triplicate using an assay kit (from Pharmaceutical and Biotechnological Innovation-Services) according to the manufacturer’s instructions.
# ABTS assay = test: ABTS assay
# Experimental: as §1
# male Wistar rat = test: Acute oral toxicity, Up and Down procedure (OECD 425); assay type: in vivo; parameters: Heart weight / IWA (initial weight of animals) / FWA (final weight of animals) / Spleen weight / Liver weight / Intestine weight / Stomach weight / Kidney weight: unit not given here
# Experimental: All synthesized compounds (8c, 8d, and 12d as a racemic mixture) were suspended in 2% Tween 80 in water and administered orally by an esophageal cannula following the “Up and Down” methodology. Nevertheless, compounds could not be solubilized in the desired volume to complete the highest dose (1750 mg/Kg), so the toxicity test was performed with a maximum dose of 1250 mg/Kg. Even so, the values obtained indicate that these compounds are classified within toxicity category 4 according to the guidelines established by the Organization for Economic Co-operation and Development (OECD).
# The “Up and Down” procedure of OECD Guideline 425 was used to estimate the LD50 value of synthesized compounds. Briefly, a dose of 175 mg/Kg was administered to a male Wistar rat, which was monitored continuously for 48 h. As the animal survived, a second animal received a dose of 550 mg/Kg, and, as it survived, a third animal received an increasing dose of 1750 mg/Kg. Finally, two other rats were administered the same dose. All animals were kept under observation for 14 days, and 24 h later, they were taken to the humane endpoint for macroscopic examination of organs and tissues. Finally, the LD50 value of the compounds was estimated to determine their degree of toxicity and classified based on the GHS of Classification and Labeling of Chemicals.
# [1] = test system: STZ-HFD-induced T2D Wistar rats; test: 24-element blood chemistry in STZ-HFD-induced T2D model; assay type: in vivo, rat; parameters: GGT / TBA / AMY / TG / T-CHOL / GLU: unit not given here; settings: for ALP / ALT / AST / CK: in U/L (unit assumed); for ALB / GLO / TP: in g/dL (unit assumed); for BUN / CRE / Ca / Mg / P / TBIL / UREA: in mg/dL (unit assumed); for tCO2: in mmol/L (unit assumed); for TP: mean ± SEM, n = 4
# Experimental: Treatments were administered daily as described above, adjusting the dose according to the weight of the individuals. Fasting glucose levels (6 h fast) were monitored every 7 days until the end of treatments at week 10 (Figure 14). Halfway through the last week of treatment, the OGTT was performed, administering a dose of 1.5 g/Kg of glucose orally and subsequently monitoring capillary blood glucose at 0, 15, 30, 60, 90, and 120 min [62]. In addition, a 24-element blood chemistry was measured in a Celercare V automated dry chemistry analyzer (Tianjin MNCHIP Technologies Co., Ltd., Tianjin, China) at the beginning and end of the model. For this purpose, the blood samples were obtained from the tail of the rat.
# (§2) At the end of the study, animals fasted for 12 h and were taken to a humane endpoint, where blood samples were obtained. These were kept at room temperature for 30 min and then centrifuged at 4000 RPM for 15 min at 4 °C. Finally, the serum was used to perform 24-element blood chemistry and quantify Trolox-equivalent TAC [86], TNF-α [87], and IL-6 levels using commercial kits from Merck (Darmstadt, Germany), Sigma-Aldrich (St. Louis, MO, USA), Cat. No. MAK334-1KT, RAB0479-1KT, and RAB0311-1KT, respectively. In addition, insulin was quantified using the Rat Ins1/Insulin ELISA Kit, from Sigma-Aldrich, No. Cat. RAB0904-1KT [89] to determine the HOMA-IR index. All kits were performed according to the manufacturer’s instructions without modifications.
# [2] = test system: STZ-HFD-induced T2D Wistar rats; test: Ex vivo serum total antioxidant capacity (Trolox equivalent); assay type: in vivo, rat
# Experimental: as §2
# IL-6 = test: Ex vivo serum IL-6 quantification; assay type: in vivo, rat
# Experimental: as §2
# TNF-α = test: Ex vivo serum TNF-α quantification; assay type: in vivo, rat
# Experimental: as §2
# ALR2 enzyme = molecular target: T1, ALR2 enzyme (Homo sapiens, UniProt P15121); test: ALR2 activity assay kit (ab273276), inhibition; assay type: biochemical; settings: Inhibitor concentration;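 note: inhibition calculated from the rate of NADPH cofactor consumption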
# T1 construct: purchased ab273276
# [3] = 1250 mg/Kg oral, necropsy, mean ± SEM
# [4] = Table S11, After 5 weeks of treatment
# [5] = serum, end of treatment, mean ± SEM, n = 4
compound,measurement,setting,value
"COC(=O)[C@H](Cc1ccccc1)N/C(=N\c1nc2ccccc2s1)SC [8d, Methyl (E)-((benzo[d]thiazol-2-ylimino)(methylthio)methyl)-L-phenylalaninate]",Percentage reduction of ferric ion to ferrous ion (FRAP),FRAP assay; 30 µM,12.7%
same,Percentage reduction of ferric ion to ferrous ion (FRAP),FRAP assay; 50 µM,14.1%
same,Percentage reduction of ferric ion to ferrous ion (FRAP),FRAP assay; 70 µM,15.1%
same,Percentage reduction of ferric ion to ferrous ion (FRAP),FRAP assay; 90 µM,16.9%
same,Percentage reduction of ferric ion to ferrous ion (FRAP),FRAP assay; 110 µM,18.4%
same,Percentage reduction of radical cation ABTS,ABTS assay; 30 µM,-4.0%
same,Percentage reduction of radical cation ABTS,ABTS assay; 50 µM,-3.0%
same,Percentage reduction of radical cation ABTS,ABTS assay; 70 µM,-4.2%
same,Percentage reduction of radical cation ABTS,ABTS assay; 90 µM,-3.6%
same,Percentage reduction of radical cation ABTS,ABTS assay; 110 µM,-2.5%
same,FWA (final weight of animals),"male Wistar rat; 1250 mg/Kg oral, after 14 days, mean ± SEM",310.57 ± 11.6
same,IWA (initial weight of animals),"male Wistar rat; 1250 mg/Kg oral, mean ± SEM",201.0 ± 7.17
same,Heart weight,male Wistar rat; [3],1.30 ± 0.03
same,Intestine weight,male Wistar rat; [3],29.97 ± 0.72
same,Kidney weight,male Wistar rat; [3],2.97 ± 0.03
same,Liver weight,male Wistar rat; [3],17.57 ± 0.50
same,Spleen weight,male Wistar rat; [3],0.67 ± 0.07
same,Stomach weight,male Wistar rat; [3],1.70 ± 0.10
same,toxicity category (OECD),male Wistar rat; maximum dose 1250 mg/Kg oral,4
same,triglycerides (TG),[1]; After 5 weeks of treatment,significantly reducing TG
same,A/G,[1]; Final,1.28 ± 0.03
same,AMY,[1]; Final,436.50 ± 29.54
same,AST/ALT,[1]; Final,4.42 ± 0.79
same,BUN/CRE,[1]; Final,28.50 ± 6.00
same,GGT,[1]; Final,0.65 ± 0.18
same,GLU,[1]; Final,172.75 ± 50.56
same,T-CHOL,[1]; Final,90.00 ± 16.06
same,TBA,[1]; Final,54.33 ± 31.99
same,TG,[1]; Final,177.90 ± 82.61
same,ALP,[1]; Final,210.25 ± 109.57
same,ALT,[1]; Final,85.50 ± 27.46
same,AST,[1]; Final,319.75 ± 51.70
same,CK,[1]; Final,> 3000
same,ALB,[1]; Final,4.00 ± 0.16
same,GLO,[1]; Final,3.13 ± 0.13
same,BUN,[1]; Final,17.78 ± 4.29
same,CRE,[1]; Final,0.62 ± 0.03
same,Ca,[1]; Final,9.82 ± 0.48
same,Mg,[1]; Final,2.34 ± 0.09
same,P,[1]; Final,7.89 ± 0.55
same,TBIL,[1]; Final,0.25 ± 0.05
same,UREA,[1]; Final,38.10 ± 9.11
same,tCO2,[1]; Final,18.00 ± 0.82
same,TP,[1]; Final,7.13 ± 0.28
same,A/G,[1]; Initial,1.3 ± 0.11
same,AMY,[1]; Initial,361.25 ± 6.54
same,AST/ALT,[1]; Initial,2.16 ± 0.40
same,BUN/CRE,[1]; Initial,21.50 ± 2.60
same,GGT,[1]; Initial,1.33 ± 0.38
same,GLU,[1]; Initial,188.50 ± 31.74
same,T-CHOL,[1]; Initial,105.5 ± 19.94
same,TBA,[1]; Initial,79.85 ± 13.64
same,TG,[1]; Initial,291.35 ± 160.5
same,ALP,[1]; Initial,287.75 ± 31.54
same,ALT,[1]; Initial,68.75 ± 11.67
same,AST,[1]; Initial,135.75 ± 8.14
same,CK,[1]; Initial,641.75 ± 63.37
same,ALB,[1]; Initial,3.78 ± 0.08
same,GLO,[1]; Initial,2.95 ± 0.22
same,BUN,[1]; Initial,11.94 ± 1.46
same,CRE,[1]; Initial,0.56 ± 0.00
same,Ca,[1]; Initial,9.45 ± 0.16
same,Mg,[1]; Initial,2.18 ± 0.07
same,P,[1]; Initial,6.83 ± 0.64
same,TBIL,[1]; Initial,0.31 ± 0.05
same,UREA,[1]; Initial,25.65 ± 3.10
same,tCO2,[1]; Initial,15.25 ± 0.63
same,TP,[1]; Initial,6.73 ± 0.20
same,hepatotoxicity,[1]; subchronic treatment,without inducing hepatotoxicity
same,effect on total antioxidant capacity (TAC),[2],did not improve TAC
same,TAC Equivalent to Trolox,[2]; [4],79.26 ± 17.28 µM
same,TAC Equivalent to Trolox,[2]; [5],79.26 ± 17.28 µM
same,effect on IL-6 and TNF-α levels,IL-6; IL-6 and TNF-α together,highest levels of both cytokines
same,IL-6,IL-6; [4],887.53 ± 243.91 pg/mL
same,IL-6,IL-6; [5],887.53 ± 243.91 pg/mL
same,TNF-α,TNF-α; [4],5417.72 ± 2104.18 pg/mL
same,TNF-α,TNF-α; [5],5417.72 ± 2104.2 pg/mL
same,relative ALR2 inhibition,ALR2 enzyme,98.000%
